We go through 1 compound from patent publication US20220040136A1, “TREATMENT OF VULVOVAGINAL DISORDERS” (University of Rochester, priority 2018, published 2022).

One experiment deals with human vulvar fibroblasts. Description: In vitro LPV model: SPM pre-treatment of patient vestibular/vulvar fibroblasts before inflammatory stimulation, IL-6 and PGE2 by ELISA/EIA. The format is cell-based. The settings on record: pre-treated 10 hours with 5 nM SPM, vestibular and external vulvar fibroblasts. As to the method:
FIGS. 5A, 5B, 5C, and 5D are a set of diagrams showing that PGE2 and IL-6 production is reduced by SPMs. Patient vestibular or vulvar fibroblasts were pre-treated for 10 hours with Lipoxin A4 (LxA4), Resolvin D2 (RvD2), (7R)-Maresin 1 or epi(7S)-Maresin 1 at a 5 nM concentration, then activated with IL-1β (Panel A; 10 pg/ml) or bradykinin (Panel B; 100 nM) for 48 hr. Culture media were collected and analyzed for PGE2 (Panel A) or IL-6 (Panel B) content. Patient fibroblasts were also activated first with IL-1β for 30 min then treated with 5 nM (7R)-Maresin 1 or LXA4 for 18 hours, followed by a booster dose for 6 hr. Culture media were collected and analyzed for PGE2 (Panel C) or IL-6 (Panel D) content. Mean+/−SEM of n=3, ANOVA *p<0.05 vs. activation only (no SPM).
FIGS. 23A and 23B are diagrams showing six SPMs are effective in reducing IL-6 and PGE2 production from fibroblasts when used as a pre-treatment and post-treatment. Patient vestibular or vulvar fibroblasts were pre-treated for 18 h with Resolvin D3 (RvD3), Resolvin D4 (RvD4), Resolvin D5 (RvD5), Resolvin E1 (RvE1), Protectin D1 or Protectin DX at a 5 nM concentration, pre-treated again for 30 min prior to activation, then activated with 10 pg/ml IL-1β for 48 h with a booster SPM dose at 24 h. Culture media were collected and analyzed for IL-6 (Panel A) and PGE2 (Panel B). Mean+/−SEM of n=6 (two cases run in triplicate), ANOVA *p<0.05 vs. activation only (IL-1b).
In this example, a fibroblast-based in vitro LPV model was established. Briefly, fibroblast strains were obtained from two regions (FIG. 1) of the lower genital tract of localized provoked vulvodynia (LPV) cases and pain-free controls in the manner described in Falsetta et al. Am J Obstet Gynecol 2015, vol. 213, pp. 38 e1-12 and Foster et al., Pain 2015, vol. 156, pp. 386-96.
Over 30 paired fibroblast strains obtained from LPV-afflicted cases (fulfilling Friedrich's Criteria)^25 and age/race-matched (critical variables influencing LPV),^26, 27 pain-free controls were obtained. All subjects who contributed to the library were premenopausal, denied oral corticosteroids, non-steroidal, immunomodulatory, or anti-inflammatory medication use, and reported an absence of systemic/cutaneous inflammatory conditions at the time of sample collection. Mechanical pain thresholds were determined (via a method of limits) (0.5-5 N) using a Wagner algometer. Fibroblast identity was confirmed by microscopy and fibroblast markers (vimentin, collagen); only low passage (˜4) cells are used.
Synthesized, purified and commercially available SPMs from each known SPM class (E-series Resolvins, D-series Resolvins, Maresins, Protectins and Lipoxins) at low/nanomolar concentrations (1-100 nM) were tested. […] The inventors used one of two treatment regimens proven effective in vulvar fibroblasts and other cells: 1) overnight pre-treatment, followed by another treatment 30 min prior to stimulation with proinflammatory stimuli for 48 hr with a third dose of SPMs at 24 hr post-challenge, or 2) post-treatment with SPMs after a 30 min pre-treatment with inflammatory stimuli, followed by a booster dose 18 hr later. Both treatment regimens are of interest, as SPMs are active throughout the inflammatory process.^5-7 Even SPMs administered after LPV onset are likely to prevent the worsening or spread of LPV pain.
Next, SPMs from other classes (E series Resolvins and Protectins), as well as additional SPMs from classes containing members that are effective in reducing IL-6 and PGE2 production (e.g., Maresins) were investigated in similar screen. […] SPMs that were effective in reducing more than one proinflammatory mediator in at least 2 tests can be examined for further testing using a preclinical mouse model. […] These additional effective SPMs include Resolvin D3, Resolvin D4, Resolvin D5, Resolvin E1, Protectin D1, and Protectin DX. […]
In general terms: In an ELISA, binding on a coated surface is turned into a signal by an enzyme label.

Another experiment deals with Mouse vulvar tissue. Description: Mouse vulvar explants (4 mm punch biopsy), IL-1β-stimulated PGE2 production. The format is cell-based. The settings on record: pre-treatment 18 hours, then IL-1β 10 pg/ml 18 hours; range of doses, as low as 1 nM; FIG. 6. The procedure:
FIG. 6 is a diagram showing that SPMs inhibit PGE2 production from mouse vulvar tissue. Mouse vulvar tissue (4 mm punch biopsies) was collected and bisected then pre-treated in culture medium with either Maresin 1 or RvD2 at indicated concentrations for 18 hours, followed by an additional 18 hours stimulation with IL-1β (10 pg/ml). Culture medium was collected and analyzed for PGE2 content. Mean+/−SEM; n=3 replicate cultures. ANOVA * p<0.05 vs. vehicle.
Although SPM structure and therapeutic efficacy is conserved across species,^5-7 inventors first confirmed that mouse vulvar tissues responded to SPM treatment in vitro by culturing mouse vulvar explants (4 mm punch biopsy). The explants were stimulated with IL-1, and then assays were carried to assess the ability of Maresin 1 or RvD2 to reduce PGE2 production under the established pre-treatment regimen.

With `CC/C=C\C/C=C\C[C@H](O)\C=C/C=C/C=C/[C@H](O)C/C=C\CCC(=O)O` [Maresin 1, 7R,14S-docosa-4Z,8E,10E,12Z,16Z,19Z-hexaenoic acid], in the experiment on human vulvar fibroblasts (then IL-1β 10 pg/ml 48 hr, FIG. 5A), the “prostaglandin E2 (PGE2) production” value was “significantly reduced”. For the same compound, the “interleukin-6 (IL-6) production” value with human vulvar fibroblasts (then bradykinin 100 nM 48 hr, FIG. 5B) is on record as “significantly reduced”. The “PGE2 responses following IL-1β treatment” value in the experiment on Mouse vulvar tissue is “significantly suppressed”.
